Reference: patent US12692274B2, “Tetrahydroisoquinoline derivatives for the treatment of red blood disorders and inflammatory diseases” (Sanofi, priority 2020, dated 2026)
“And” between values parts separate entries of the source, which are not always exact repeats. Equal entries are not always repeated.

Test system: NQO1 activation in BEAS-2B cells
Test: BEAS-2B cellular MTT assay of NQO1 activation, 0% HSA
Type: cell-based
Conditions: Homo sapiens, serum free, read-out: BEAS EC50 (nM) serum free
Summary of the method: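 BEAS-2B cells grown in BEBM with BEGM SingleQuots (no GA-1000), kept below 70% confluence, seeded on collagen plates at a density giving 95-100% confluence after 48 h. Plates seeded in medium without HSA (0% HSA condition).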

SMILES | EC50 [nM]
Cc1nc2ccc1C(CC(=O)O)c1ccc3c(c1)CN(CC3)C(=O)c1c(F)cc(cc1F)OCCCCO2 (centres unmarked) [Compound 180] | 701
O=C(O)CC1c2ccc(nc2)OCCCCOc2ccc(cc2C(F)(F)F)C(=O)N2CCc3ccc1cc3C2 (centres unmarked) [Compound 184] | 471
O=C(O)CC1c2ccc(nc2)OCCCCOc2cnc(cn2)C(=O)N2CCc3ccc1cc3C2 (centres unmarked) [Compound 185] | > 10000
Cc1nc2ncc1C(CC(=O)O)c1ccc3c(c1)CN(CC3)C(=O)c1ccc(c(Cl)c1)OCCCCO2 (centres unmarked) [Compound 186] | > 10000
O=C(O)CC1c2ccc(nc2)OCCCCCc2cc(F)c(c(F)c2)C(=O)N2CCc3ccc1cc3C2 (centres unmarked) [Compound 187] | 9.3
COc1cc2ccc1CCCCCCn1nnc3c(C)c(ccc31)C(CC(=O)O)c1ccc3c(c1)CN(CC3)C2=O (centres unmarked) [Compound 189] | 4.4
COc1cc2ccc1C(=O)N1CCc3ccc(cc3C1)C(CC(=O)O)c1ccc3c(nnn3CCCCC2)c1C (centres unmarked) [Compound 191] | 11.4
Cc1c2ccc3c1nnn3CCCCCCc1ccc3nc(n(C)c3c1)C(=O)N1CCc3ccc(cc3C1)C2CC(=O)O (centres unmarked) [Compound 192] | 75.6
O=C(O)CC1c2ccc(nc2)OCCCCCc2cnc(c(F)c2)C(=O)N2CCc3ccc1cc3C2 (centres unmarked) [Compound 194] | 870

Same assay, conditions: serum free, read-out: BEAS EC50 (nM) serum free

SMILES | EC50 [nM]
Cc1nc2ccc1C(CC(=O)O)c1ccc3c(c1)CN(CC3)C(=O)c1c(F)cc(cc1F)OCCCCO2 (centres unmarked) [Compound 180] | 878
O=C(O)CC1c2ccc(nc2)OCCCCOc2ccc(cc2C(F)(F)F)C(=O)N2CCc3ccc1cc3C2 (centres unmarked) [Compound 184] | 713
O=C(O)CC1c2ccc(nc2)OCCCCCc2cc(F)c(c(F)c2)C(=O)N2CCc3ccc1cc3C2 (centres unmarked) [Compound 187] | 8.9
COc1cc2ccc1CCCCCCn1nnc3c(C)c(ccc31)C(CC(=O)O)c1ccc3c(c1)CN(CC3)C2=O (centres unmarked) [Compound 189] | 6
COc1cc2ccc1C(=O)N1CCc3ccc(cc3C1)C(CC(=O)O)c1ccc3c(nnn3CCCCC2)c1C (centres unmarked) [Compound 191] | 18
Cc1c2ccc3c1nnn3CCCCCCc1ccc3nc(n(C)c3c1)C(=O)N1CCc3ccc(cc3C1)C2CC(=O)O (centres unmarked) [Compound 192] | 63.7
O=C(O)CC1c2ccc(nc2)OCCCCCc2cnc(c(F)c2)C(=O)N2CCc3ccc1cc3C2 (centres unmarked) [Compound 194] | 1100

Target: HIS-Keap1 full length / Biotin-Nrf2 (16-mer) (Homo sapiens, UniProt Q14145)
Test: biochemical
Conditions: not given

HIS-Keap1 full length / Biotin-Nrf2 (16-mer), sequence (Q14145 whole entry): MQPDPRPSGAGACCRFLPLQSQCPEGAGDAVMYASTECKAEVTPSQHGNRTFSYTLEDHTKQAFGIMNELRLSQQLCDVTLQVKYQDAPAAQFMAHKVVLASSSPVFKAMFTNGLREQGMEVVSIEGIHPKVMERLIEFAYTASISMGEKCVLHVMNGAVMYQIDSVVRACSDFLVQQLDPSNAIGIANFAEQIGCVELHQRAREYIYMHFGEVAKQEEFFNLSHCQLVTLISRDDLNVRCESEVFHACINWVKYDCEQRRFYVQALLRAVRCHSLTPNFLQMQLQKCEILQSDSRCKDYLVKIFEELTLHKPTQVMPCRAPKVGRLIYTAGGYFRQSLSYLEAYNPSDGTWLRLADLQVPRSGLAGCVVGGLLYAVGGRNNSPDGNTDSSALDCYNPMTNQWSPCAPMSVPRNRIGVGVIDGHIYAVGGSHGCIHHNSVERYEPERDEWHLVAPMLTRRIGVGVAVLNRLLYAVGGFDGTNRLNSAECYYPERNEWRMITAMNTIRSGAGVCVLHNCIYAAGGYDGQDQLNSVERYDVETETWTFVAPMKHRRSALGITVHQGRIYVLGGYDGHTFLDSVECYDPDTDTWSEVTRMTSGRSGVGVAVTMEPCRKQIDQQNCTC

SMILES | IC50
Cc1nc2ccc1C(CC(=O)O)c1ccc3c(c1)CN(CC3)C(=O)c1c(F)cc(cc1F)OCCCCO2 (centres unmarked) [Compound 180] | 253 nM and 296 nM
O=C(O)CC1c2ccc(nc2)OCCCCOc2ccc(cc2C(F)(F)F)C(=O)N2CCc3ccc1cc3C2 (centres unmarked) [Compound 184] | 168 nM and 147 nM
O=C(O)CC1c2ccc(nc2)OCCCCOc2cnc(cn2)C(=O)N2CCc3ccc1cc3C2 (centres unmarked) [Compound 185] | > 1000 nM
Cc1nc2ncc1C(CC(=O)O)c1ccc3c(c1)CN(CC3)C(=O)c1ccc(c(Cl)c1)OCCCCO2 (centres unmarked) [Compound 186] | 527 nM and 289 nM
O=C(O)CC1c2ccc(nc2)OCCCCCc2cc(F)c(c(F)c2)C(=O)N2CCc3ccc1cc3C2 (centres unmarked) [Compound 187] | 5.9 nM and 5.6 nM
COc1cc2ccc1CCCCCCn1nnc3c(C)c(ccc31)C(CC(=O)O)c1ccc3c(c1)CN(CC3)C2=O (centres unmarked) [Compound 189] | 22.8 nM and 23.3 nM
COc1cc2ccc1C(=O)N1CCc3ccc(cc3C1)C(CC(=O)O)c1ccc3c(nnn3CCCCC2)c1C (centres unmarked) [Compound 191] | 19.5 nM and 20.4 nM
Cc1c2ccc3c1nnn3CCCCCCc1ccc3nc(n(C)c3c1)C(=O)N1CCc3ccc(cc3C1)C2CC(=O)O (centres unmarked) [Compound 192] | 7 nM and 6.8 nM
O=C(O)CC1c2ccc(nc2)OCCCCCc2cnc(c(F)c2)C(=O)N2CCc3ccc1cc3C2 (centres unmarked) [Compound 194] | 24.3 nM and 22.9 nM

Test system: NQO1 activation in BEAS-2B cells
Test: BEAS-2B cellular MTT assay of NQO1 activation, 0.3% HSA
Type: cell-based
Conditions: BEAS+, read-out: BEAS+ EC50
Summary of the method: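 BEAS-2B cells (<70% confluent in culture, BEBM/SingleQuots without GA-1000) seeded in collagen plates with 0.3% or 0% HSA, reaching 95-100% confluency after 48 h at 37 °C, 5% CO2; MTT read-out.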

SMILES | EC50 [nM]
Cc1nc2ccc1C(CC(=O)O)c1ccc3c(c1)CN(CC3)C(=O)c1c(F)cc(cc1F)OCCCCO2 (centres unmarked) [Compound 180] | 1000
O=C(O)CC1c2ccc(nc2)OCCCCOc2ccc(cc2C(F)(F)F)C(=O)N2CCc3ccc1cc3C2 (centres unmarked) [Compound 184] | 2570
O=C(O)CC1c2ccc(nc2)OCCCCCc2cc(F)c(c(F)c2)C(=O)N2CCc3ccc1cc3C2 (centres unmarked) [Compound 187] | 19.1
COc1cc2ccc1CCCCCCn1nnc3c(C)c(ccc31)C(CC(=O)O)c1ccc3c(c1)CN(CC3)C2=O (centres unmarked) [Compound 189] | 15.9
COc1cc2ccc1C(=O)N1CCc3ccc(cc3C1)C(CC(=O)O)c1ccc3c(nnn3CCCCC2)c1C (centres unmarked) [Compound 191] | 18
Cc1c2ccc3c1nnn3CCCCCCc1ccc3nc(n(C)c3c1)C(=O)N1CCc3ccc(cc3C1)C2CC(=O)O (centres unmarked) [Compound 192] | 124
O=C(O)CC1c2ccc(nc2)OCCCCCc2cnc(c(F)c2)C(=O)N2CCc3ccc1cc3C2 (centres unmarked) [Compound 194] | 829

Same assay, conditions: Homo sapiens, BEAS+, read-out: BEAS+ EC50

SMILES | EC50 [nM]
Cc1nc2ccc1C(CC(=O)O)c1ccc3c(c1)CN(CC3)C(=O)c1c(F)cc(cc1F)OCCCCO2 (centres unmarked) [Compound 180] | 1300
O=C(O)CC1c2ccc(nc2)OCCCCOc2ccc(cc2C(F)(F)F)C(=O)N2CCc3ccc1cc3C2 (centres unmarked) [Compound 184] | 2900
O=C(O)CC1c2ccc(nc2)OCCCCOc2cnc(cn2)C(=O)N2CCc3ccc1cc3C2 (centres unmarked) [Compound 185] | > 10000
Cc1nc2ncc1C(CC(=O)O)c1ccc3c(c1)CN(CC3)C(=O)c1ccc(c(Cl)c1)OCCCCO2 (centres unmarked) [Compound 186] | > 10000
O=C(O)CC1c2ccc(nc2)OCCCCCc2cc(F)c(c(F)c2)C(=O)N2CCc3ccc1cc3C2 (centres unmarked) [Compound 187] | 22
COc1cc2ccc1CCCCCCn1nnc3c(C)c(ccc31)C(CC(=O)O)c1ccc3c(c1)CN(CC3)C2=O (centres unmarked) [Compound 189] | 18.8
COc1cc2ccc1C(=O)N1CCc3ccc(cc3C1)C(CC(=O)O)c1ccc3c(nnn3CCCCC2)c1C (centres unmarked) [Compound 191] | 20.5
Cc1c2ccc3c1nnn3CCCCCCc1ccc3nc(n(C)c3c1)C(=O)N1CCc3ccc(cc3C1)C2CC(=O)O (centres unmarked) [Compound 192] | 114
O=C(O)CC1c2ccc(nc2)OCCCCCc2cnc(c(F)c2)C(=O)N2CCc3ccc1cc3C2 (centres unmarked) [Compound 194] | 1080
